Experimental data published in patent publication US20260327235A1, “CRYSTAL FORM OF PYRIMIDO AZACYCLO COMPOUND, AND PREPARATION METHOD THEREFOR AND USE THEREO” (TYK MEDICINES, INC., priority 2023, published 2026).
Values after ≈ are worked out from the molar mass of the structure shown. “Also recorded” adds a separate entry of the source.

What was measured:
[1] = Evaluation of amorphous free base: slurry in solvent, 2 days; type: physicochemical; conditions: for Resulting crystal form: room temperature, 2 days
Method: 100 mg of the amorphous free base sample obtained in the present invention was weighed and a solvent was added to form a suspension. The mixture was stirred at room temperature for 2 days, and the results are as follows: […]

[2] = Rat pharmacokinetics after single oral administration; type: in vivo, SD rats; conditions: for In vivo exposure level (in words): compared with free base crystal form I
[3] = Pharmacokinetic studies in animals, summary statements; type: in vivo; conditions: for In vivo exposure levels in animals (in words): summary; for Absorption (in words) / Bioavailability in vivo (in words) / Blood drug concentration distribution (in words) / Stability in vivo (in words): pharmacokinetic studies
[4] = Solid state stability study, 7 days; type: physicochemical; conditions: for Purity: 10080 min; for Crystal stability (in words): 60 °C/closed and 40 °C/75% RH; for Initial purity: stability baseline; for Solid-state stability (in words): summary; for HPLC purity (area %) at 168 h: solid state
Method: (§1) HPLC analysis was performed using Agilent HPLC 1260 series instruments.

[5] = Dog pharmacokinetics after single oral administration; type: in vivo, dogs; conditions: compared with free base crystal form I
[6] = Rough solubility of free base crystal form I in solvents by visual inspection; type: physicochemical; conditions: room temperature
[7] = Solubility test in biological media and water at 37 °C (HPLC); type: physicochemical; conditions: for Solubility: calculated using free base
Method: as §1
The solubility of salt was calculated using free base.

[8] = gavage, 10 mpk, 0.5% MC + 1% tween 80, plasma, 10 mg/kg
[9] = FaSSIF (pH = 6.49), 0.5 h, 37 °C, LOQ ~1.0 μg/mL
[10] = FaSSIF (pH = 6.49), solution at 0.5 h
[11] = FaSSIF (pH = 6.49), solution at 2.0 h
[12] = FaSSIF (pH = 6.49), solution at 24 h
[13] = FeSSIF (pH = 5.00), solution at 0.5 h
[14] = FeSSIF (pH = 5.00), solution at 2.0 h
[15] = FeSSIF (pH = 5.00), solution at 24 h
[16] = SGF (pH = 1.19), solution at 0.5 h
[17] = SGF (pH = 1.19), solution at 2.0 h
[18] = SGF (pH = 1.19), solution at 24 h
[19] = Water (pH = 5.45), 0.5 h/2 h/24 h, 37 °C, LOQ ~1.0 μg/mL
[20] = Water (pH = 5.45), solution at 0.5 h
[21] = Water (pH = 5.45), solution at 2.0 h
[22] = Water (pH = 5.45), solution at 24 h

| Absorption (in words) [3] | Bioavailability in vivo (in words) [3] | Stability in vivo (in words) [3] | XRPD ([4]; 40 °C/75% RH, 7 days) | Purity ([4]; 40 °C/75% RH, 7 days) [Area %] | XRPD ([4]; 60 °C/Closed, 7 days) | Purity ([4]; 60 °C/Closed, 7 days) [Area %] | Crystal stability (in words) ([4]; 7 days) | Initial purity [4] [Area %] | AUC0-last [2, 8] [ng·h/mL] | AUCINF [2, 8] [ng·h/mL] | Solid-state stability (in words) [4] | Solubility [7, 9] | pH [7, 10] | pH [7, 11] | pH [7, 12] | Structure (SMILES) | In vivo exposure level (in words) [2] | In vivo exposure levels in animals (in words) [3] | Blood drug concentration distribution (in words) [3] | In vivo exposure level (in words) [5] | also measured |
| --- | --- | --- | --- | --- | --- | --- | --- | --- | --- | --- | --- | --- | --- | --- | --- | --- | --- | --- | --- | --- | --- |
| – | – | – | – | – | – | – | – | – | – | – | – | – | – | – | – | CCn1ncc2c(Nc3cc(C)[nH]n3)nc([C@H]3CC[C@](OC)(C(=O)N[C@@H](C)c4cnc(-n5cc(F)cn5)cn4)CC3)nc21 [Amorphous free base] | – | – | – | – | Resulting crystal form ([1]; Acetone suspension): form III; Resulting crystal form ([1]; Methanol suspension): form I; Stability of amorphous sample (in words) ([1]; in the solvent): unstable and easily transformed into other crystal forms in the solvent |
| easy to absorb | high bioavailability | good stability in vivo | Unchanged | 99.253 | Unchanged | 99.212 | good | 99.316 | – | – | – | – | – | – | – | CCn1ncc2c(Nc3cc(C)[nH]n3)nc([C@H]3CC[C@](OC)(C(=O)N[C@@H](C)c4cnc(-n5cc(F)cn5)cn4)CC3)nc21 [Free base crystal form III] | higher than those of free base crystal form I | higher animal exposure levels compared to the free base crystal form I | good blood drug concentration distribution | higher than those of free base crystal form I | – |
| – | – | – | – | – | – | – | – | – | 1172.00 | 1197.00 | – | – | – | – | – | CCn1ncc2c(Nc3cc(C)[nH]n3)nc([C@H]3CC[C@](OC)(C(=O)N[C@@H](C)c4cnc(-n5cc(F)cn5)cn4)CC3)nc21 [Free base crystal form I] | – | – | – | – | Cmax [2, 8]: 158.00 ng/mL; T1/2 [2, 8]: 2.69 h; Solubility ([6]; 2-Me-THF): 11100 to 12500 µg/mL; Solubility ([6]; Acetone): 7100 to 8300 µg/mL; Solubility ([6]; DCM): 4600 to 5000 µg/mL; Solubility ([6]; EA): 2200 to 2300 µg/mL; Solubility ([6]; IPAc): 1500 to 1600 µg/mL; Solubility ([6]; THF): 41700 to 50000 µg/mL; Solubility ([6]; organic solvent or mixture, ACN, read-out: Solubility): ~800 µg/mL (≈ 1.36 mM); Solubility in the remaining solvents (in words) ([6]; solvents other than DMSO and THF): poor solubility |
| easy to absorb | high bioavailability | good stability in vivo | Unchanged | 97.914 | Unchanged | 98.119 | good | 98.062 | – | – | good solid-state stability | <LOQ^1 | 6.48 | 6.54 | 5.91 | CCn1ncc2c(Nc3cc(C)[nH]n3)nc([C@H]3CC[C@](OC)(C(=O)N[C@@H](C)c4cnc(-n5cc(F)cn5)cn4)CC3)nc21 [Fumarate crystal form I] | higher than those of free base crystal form I | excellent in vivo exposure levels; also recorded: higher animal exposure levels compared to the free base crystal form I | good blood drug concentration distribution | higher than those of free base crystal form I | Chemical purity change (in words) ([4]; 40 °C/75% RH, 7 days): slightly decreases; Stability (in words) ([4]; closed high temperature condition (60 °C), 7 days): good; pH [7, 13]: 5.01; pH [7, 14]: 5.03; pH [7, 15]: 4.93; pH [7, 16]: 1.17; pH [7, 17]: 1.22; pH [7, 18]: 1.27; Solubility [7, 19]: <LOQ; pH [7, 20]: 5.22; pH [7, 21]: 5.84; pH [7, 22]: 3.50; XRPD (24 h) ([7]; solid form after 24 h in FaSSIF (pH = 6.49)): amorphous |
| easy to absorb | high bioavailability | good stability in vivo | Unchanged | – | Unchanged | – | good | 98.772 | 1209.00 | 1217.00 | good solid-state stability | <LOQ | 6.45 | 6.30 | 5.61 | CCn1ncc2c(Nc3cc(C)[nH]n3)nc([C@H]3CC[C@](OC)(C(=O)N[C@@H](C)c4cnc(-n5cc(F)cn5)cn4)CC3)nc21 [Malate crystal form I] | higher than those of free base crystal form I | excellent in vivo exposure levels; also recorded: higher animal exposure levels compared to the free base crystal form I | good blood drug concentration distribution | higher than those of free base crystal form I | HPLC purity (area %) at 168 h ([4]; 40 °C/75% RH, 7 days): 98.7%; HPLC purity (area %) at 168 h ([4]; 60 °C/Closed, 7 days): 98.8%; Solubility ([7]; FaSSIF (pH = 6.49), 24 h, 37 °C, LOQ ~1.0 μg/mL): <LOQ; pH [7, 13]: 4.95; pH [7, 14]: 4.96; pH [7, 15]: 4.90; Solubility ([7]; SGF (pH = 1.19), 0.5 h, 37 °C, 30 min): 204.753 µg/mL; Solubility ([7]; SGF (pH = 1.19), 24 h, 37 °C, 1440 min): 79.977 µg/mL; pH [7, 16]: 1.27; pH [7, 17]: 1.29; pH [7, 18]: 1.33; Maximum solubility ([7]; SGF medium, 0.5 hours, 37 °C, 30 min): 200 µg/mL; Solubility [7, 19]: <LOQ; pH [7, 20]: 4.76; pH [7, 21]: 4.19; pH [7, 22]: 3.88; XRPD (24 h) ([7]; solid form after 24 h in FeSSIF (pH = 5.00)): amorphous |
